Test results taken from PubChem BioAssay AID1845203 (Molecular Pharmacology Branch, DTP, NCI, 2023).
Values joined by “and” are separate entries in the source; they are usually repeats but may differ in a detail not shown here. Identical values can stand only once.

System: G-401 tumor spheroids, viability % test/control
Experiment: Anticancer human tumor G-401 cell line growth inhibition;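 note: spheroids exposed to compound for 7 days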;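 for viability, T/C: 100% = DMSO vehicle-treated spheroids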
Conditions: spheroids with HUVEC and MSC; for viability, T/C: stronger effect = lower value
Source text: Multicellular complex tumor spheroid response to DNA repair inhibitors in combination with DNA-damaging drugs
This study explores the anticancer activities of DNA-damaging drugs and inhibitors of DNA damage repair, both as single agents and in combinations. Complex tumor spheroids comprised of malignant cells, endothelial cells and mesenchymal stem cells served as an in vitro model for human solid tumors. This model system incorporates physiologically relevant features and patient-derived or established malignant cell lines with clinically relevant genetic alterations from many tumor types. Twenty-six patient-derived or established malignant cell lines were evaluated representing sarcoma, melanoma, small cell lung cancer (SCLC), non-small cell lung cancer (NSCLC), as well as bladder, ovarian and pancreatic cancers. The concentration ranges selected for each drug and investigational agent were based upon clinically achievable concentrations if the clinical Cmax of the agent was known.
Compounds. The drugs and compounds olaparib (NSC753686), talazoparib (NSC767125), berzosertib (NSC777718), elimusertib (NSC800525), nedisertib (NSC802822), VX-984 (NSC792969), AZD-1390 (NSC803789), temozolomide (NSC362856), topotecan (NSC609699), trabectedin (NSC813783), staurosporine (NSC755774), and gemcitabine (NSC613327) were obtained from the National Cancer Institute (NCI) Developmental Therapeutics Program Chemical Repository. The FDA-approved anticancer drug set is available from the Developmental Therapeutics Program at https://dtp.cancer.gov/organization/dscb/obtaining/available_plates.htm. […] The stock solutions were prepared in dimethyl sulfoxide (DMSO, Sigma-Aldrich, St. Louis, MO, cat. D2650) at 400-fold the tested concentration and stored at -70 degrees C. Prior to their use, the stock solutions were diluted in fresh medium and the final DMSO concentration in the assay was 0.25% (v/v). All drugs and investigational agents were tested over a range starting from a high concentration at or near the clinical Cmax and decreasing in half-log increments. If the clinical Cmax for an agent had not been determined, the highest concentration tested was 10 microM.
Cell Lines. The patient-derived cancer cell (PDC) lines: 156681-154-R-J1-PDC, 283228-195-R-J1-PDC, 287954-098-R-J1-PDC, 292921-168-R-J2-PDC, 349418-098-R-PDC, 425362-245-T-J1-PDC, 556581-035-R-J1-PDC, and BL0293-F563-PDC were received from the NCI Patient-Derived Models Repository (PDMR, https://pdmr.cancer.gov). The established cell lines HS-SY-2 (RRID:CVCL_8719), MPNST, and SYO-1 (RRID:CVCL_7146) were obtained from the Sloan Kettering Institute. The alveolar soft parts sarcoma cell line ASPS-1 (RRID:CVCL_S738) was established at the NCI and grown from internal seed stocks. The following established cell lines were purchased from the American Type Culture Collection (ATCC, Manassas, VA): G-401 (ATCC, cat. CRL-1441, RRID:CVCL_0270), SW982 (ATCC, cat. HTB-93, RRID:CVCL_1734), VA-ES-BJ (ATCC, cat. CRL-2138, RRID:CVCL_1785), NCI-H719 (ATCC, cat. CRL-5837, RRID:CVCL_1582), NCI-H196 (ATCC, cat. CRL-5823, RRID:CVCL_1509), NCI-H841 (ATCC, cat. CRL-5845, RRID:CVCL_1595), NCI-H1618 (ATCC, cat. CRL-5879, RRID:CVCL_1480), NCI-H1876 (ATCC, cat. CRL-5902, RRID:CVCL_1503), DMS 114 (ATCC, cat. CRL-2066; RRID:CVCL_1174), NCI-H211 (ATCC, cat. CRL-5824; RRID:CVCL_1529), and SW 1271 (ATCC, cat. CRL-2177, RRID:CVCL_1716). The small cell lung cancer cell line COR-L88 was purchased from Sigma-Aldrich (cat. 92031917-1VL, RRID:CVCL_1141). The non-small cell lung cancer cell lines NCI-H226 (RRID:CVCL_1544) and NCI-H322M (RRID:CVCL_1557) were established at the NCI and grown from internal seed stocks. Pooled donor human umbilical vein endothelial cells (HUVEC, Lonza, cat. CC-2519) and human mesenchymal stem cells (hMSC, Lonza, cat. PT-2501) were purchased from Lonza (Walkersville, MD).
Cell Culture. All cells were maintained in an incubator at 37 degrees C and 5% CO2 with 95% humidity. […]

Q: Which results are given for `O=C(c1cc(Cc2n[nH]c(=O)c3ccccc23)ccc1F)N1CCN(C(=O)C2CC2)CC1` + COc1cc2c(cc1O)CCNC21CSC2c3c(OC(C)=O)c(C)c4c(c3C(COC1=O)N1C(O)C3Cc5cc(C)c(OC)c(O)c5C(C21)N3C)OCO4?
A: IC50 (curve of first compound, second compound 30 pM): 9.07 µM; IC50 (curve of first compound, second compound 94.9 pM): 6.01 µM; IC50 (curve of first compound, second compound 0.0003 µM): < 0.0949 µM; IC50 (curve of first compound, second compound 0.000949 µM): < 0.0949 µM; IC50 (curve of first compound, second compound 0.003 µM): < 0.0949 µM; viability, T/C (second compound 30 pM, first compound 0.0949 µM): 80.3%; viability, T/C (second compound 30 pM, first compound 0.3 µM): 97%; viability, T/C (second compound 30 pM, first compound 0.949 µM): 88.3%; viability, T/C (second compound 30 pM, first compound 3 µM): 77.8%; viability, T/C (second compound 30 pM, first compound 9.49 µM): 49.1%; viability, T/C (second compound 30 pM, first compound 30 µM): 30.1%; viability, T/C (second compound 94.9 pM, first compound 0.0949 µM): 89.4%; viability, T/C (second compound 94.9 pM, first compound 0.3 µM): 78.8%; viability, T/C (second compound 94.9 pM, first compound 0.949 µM): 82.2%; viability, T/C (second compound 94.9 pM, first compound 3 µM): 71.5%; viability, T/C (second compound 94.9 pM, first compound 9.49 µM): 35.9%; viability, T/C (second compound 94.9 pM, first compound 30 µM): 25.7%; viability, T/C (second compound 0.0003 µM, first compound 0.0949 µM): 32.3%; viability, T/C (second compound 0.0003 µM, first compound 0.3 µM): 37.4%; viability, T/C (second compound 0.0003 µM, first compound 0.949 µM): 39.3%; viability, T/C (second compound 0.0003 µM, first compound 3 µM): 29.5%; viability, T/C (second compound 0.0003 µM, first compound 9.49 µM): 18.7%; viability, T/C (second compound 0.0003 µM, first compound 30 µM): 16.2%; viability, T/C (second compound 0.000949 µM, first compound 0.0949 µM): 10.1%; viability, T/C (second compound 0.000949 µM, first compound 0.3 µM): 5.68%; viability, T/C (second compound 0.000949 µM, first compound 0.949 µM): 7.52%; viability, T/C (second compound 0.000949 µM, first compound 3 µM): 6.02%; viability, T/C (second compound 0.000949 µM, first compound 9.49 µM): 5.03%; viability, T/C (second compound 0.000949 µM, first compound 30 µM): 1.6%; viability, T/C (second compound 0.003 µM, first compound 0.0949 µM): 0.13%; viability, T/C (second compound 0.003 µM, first compound 0.3 µM): 0.15%; viability, T/C (second compound 0.003 µM, first compound 0.949 µM): 0.12%; viability, T/C (second compound 0.003 µM, first compound 3 µM): 0.18%; viability, T/C (second compound 0.003 µM, first compound 9.49 µM): 0.2%; viability, T/C (second compound 0.003 µM, first compound 30 µM): 0.24%

Q: How did the viability, T/C (compound 0.0316 µM) turn out when `Cc1cc(C)c(CNC(=O)c2cc(-c3ccc(CN4CCOCC4)cc3)cc3c2cnn3C2CCCC2)c(=O)[nH]1` was run?
A: 106% and 105% and 95.6%

Q: What about the viability, T/C (compound 0.1 µM) of the same compound?
A: 111% and 102% and 98.5%

Q: And the viability, T/C (compound 0.316 µM)?
A: 108% and 107% and 106%

Q: What about the viability, T/C (compound 1 µM) of the same compound?
A: 113% and 97.5% and 91.4%

Q: What about the viability, T/C (compound 3.16 µM) of the same compound?
A: 98.1% and 91.5% and 77.8%

Q: What about the viability, T/C (compound 10 µM) of the same compound?
A: 44.2% and 44.8% and 57.8%

Q: And the IC50 (curve of compound)?
A: 8.84 µM and 8.81 µM and > 10 µM
